Experimental data taken from US20040122089A1, “Novel eicosanoid analgesics” (priority 2001, published 2004).
Read-outs that look alike come from different tables or passages of the source.

Legend:
[1] = tested on: anandamide membrane transporter (AMT); assay type: cell-based, rat; details: [14C]AEA uptake, RBL-2H3 cells
Method: (§1) The effect of compounds on the enzymatic hydrolysis of [^14C] AEA (6 μM) was studied by using membranes prepared from N18TG2 cells incubated with increasing concentrations of compounds in 50 mM Tris-HCL, pH 9, for 30 min at 37° C. [^14C] Ethanolamine produced from [^14C] AEA hydrolysis was quantified by scintillation spectroscopy and used to measure fatty acid amide hydrolase (FAAH) activity. The effect of compounds on the uptake of AEA by RBL-2H3 cells was studied with a procedure analogous to that described in Melck, ibid., and modified as described in Hilliard et al., J. Neurochem. 69:631-638 (1997). Cells were incubated with [^14C] AEA (4μM) for 5 min. at 37° C., in the presence or absence of varying concentrations of the inhibitors. Residual [1^4C] AEA in the incubation media after extraction with CHCl3/CH30H (2:1 by volume) was used as a measure of the AEA that was taken up by cells.
In consideration of the potent inhibition of the AMT previously observed with arvanil and its derivatives (see Melck, ibid), the seven compounds were also tested for their inhibitory effect on [^4C] […] Thus, the results in Table 1 confirm the existence of a partial overlap between the ligand recognition properties of VR1 receptors and the AMT (14.24).

AMT = assay type: cell-based, rat; details: RBL-2H3 cells; read-out: AMT IC50
Method: AEA. Cells were incubated with [^14C] AEA for 5 min at 37° C., in the presence or absence of varying concentrations of the inhibitors. Residual [^14C] AEA in the incubation media after extraction with CHCl3/CH3OH 2:1 (by vol.), determined by scintillation counting of the lyophilized organic phase, was used as a measure of the AEA that was taken up by cells.
CP55940 from whole rat brain membranes.

CB2 receptors = target: T1, CB2 receptors (Rattus norvegicus, UniProt Q9QZN9); assay: CB2 binding, displacement of [3H]WIN55,212-2 from rat spleen membranes
T1 construct: rat spleen membranes, which contain mostly CB2 receptors; from tissue; host or cells: rat spleen membranes
T1 sequence (Q9QZN9 1-360): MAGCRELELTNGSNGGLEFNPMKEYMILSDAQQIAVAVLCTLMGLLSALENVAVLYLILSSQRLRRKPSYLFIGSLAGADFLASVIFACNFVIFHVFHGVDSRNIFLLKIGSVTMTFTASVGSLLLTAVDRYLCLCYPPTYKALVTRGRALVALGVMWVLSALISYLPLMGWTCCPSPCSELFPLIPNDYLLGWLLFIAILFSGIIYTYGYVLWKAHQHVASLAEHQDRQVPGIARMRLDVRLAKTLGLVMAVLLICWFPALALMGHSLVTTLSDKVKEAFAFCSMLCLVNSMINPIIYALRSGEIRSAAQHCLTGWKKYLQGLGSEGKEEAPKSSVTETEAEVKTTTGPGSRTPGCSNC
Method: (§2) For CB1 receptor binding, [^3H]CP-55,940 (Kd=[…]) was incubated with P2 membranes from whole rat brains as described in Compton et al., J. Pharm. Exp. Ther. 265:218-226 (1993). Displacement curves were generated by incubating drugs with 1 nM of [^3H]CP-55,940. The assays were performed in triplicate, and the results represent the combined data from three individual experiments. A separate set of experiments were conducted in which phenylmthylsulfonylfluoride (PMSF) was added at a concentration of 100 μm in order to prevent possible metabolism of the analogs. CB2 binding assays were performed as described in Melek et al., ibid. In all cases, Ki values were calculated applying the Cheng-Prusoff equation to the IC50 values (obtained by GraphPad) for the displacement of the bound radioligand by increasing concentrations of the test compounds.
(§3) In Table 1, affinity for CB1 and CB2 receptors was measured in displacement assays carried out using rat brain or spleen membranes and [^3H]CP 55,940 or […], respectively. Potency at human VR1 was established by measuring the stimulatory activity of the compounds on the Ca^2+ intracellular concentration in HEK cells transfected with cDNA encoding the human VR1 receptor. Efficacy at VR1 was measured by expressing the effect of a maximal concentration of each compound (usually 10 μM) as percent of the maximal possible effect obtained with 4 μM ionomycin. Data are means ±SEM of at least n=3 separate determinations. *Ki was determined in the presence of PMSF.
The hydroxy analog is much less CB1 vs. CB2 selective in both series.

[2] = target: T2, fatty acid amide hydrolase (FAAH) (Mus musculus, UniProt O08914); assay: [14C]AEA hydrolysis by N18TG2 cell membranes; assay type: biochemical
T2 construct: membranes prepared from N18TG2 cells; endogenous in cells; host or cells: N18TG2 cell membranes
T2 sequence (O08914 1-579): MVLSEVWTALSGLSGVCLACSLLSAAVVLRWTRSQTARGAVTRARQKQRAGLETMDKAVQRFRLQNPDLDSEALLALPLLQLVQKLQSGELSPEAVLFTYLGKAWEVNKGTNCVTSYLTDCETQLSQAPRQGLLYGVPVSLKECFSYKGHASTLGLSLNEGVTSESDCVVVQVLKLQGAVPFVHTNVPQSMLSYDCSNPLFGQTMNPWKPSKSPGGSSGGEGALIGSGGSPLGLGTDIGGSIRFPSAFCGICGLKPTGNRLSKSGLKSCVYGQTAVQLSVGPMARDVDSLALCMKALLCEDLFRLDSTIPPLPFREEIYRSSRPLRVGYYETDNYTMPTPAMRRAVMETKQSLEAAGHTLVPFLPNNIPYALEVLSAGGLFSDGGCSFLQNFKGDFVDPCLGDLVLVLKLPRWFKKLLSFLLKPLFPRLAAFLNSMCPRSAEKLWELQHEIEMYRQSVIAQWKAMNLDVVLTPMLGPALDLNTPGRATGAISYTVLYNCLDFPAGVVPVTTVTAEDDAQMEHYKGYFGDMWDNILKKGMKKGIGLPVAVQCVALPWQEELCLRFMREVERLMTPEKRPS
Method: as §1
Accordingly, when the compounds were tested for their capability of inhibiting [^14C] […] This is in agreement with previous observations that Me-AEA, DMH-derivatives of AEA and arvanil are poor substrates for FAAH. The two exceptions were O-1856 and O-1895, which did inhibit the hydrolysis of [^14C] AEA, although not very potently.

CB1 receptors = CB1 receptors (Rattus norvegicus, UniProt P20272); assay: CB1 receptor binding, displacement of [3H]CP-55,940 from rat brain P2 membranes (Example 2); parameters: from tissue; host or cells: whole rat brain membranes; details: for Ki: rat brain membranes
Chain of CB1 receptors (P20272 whole entry): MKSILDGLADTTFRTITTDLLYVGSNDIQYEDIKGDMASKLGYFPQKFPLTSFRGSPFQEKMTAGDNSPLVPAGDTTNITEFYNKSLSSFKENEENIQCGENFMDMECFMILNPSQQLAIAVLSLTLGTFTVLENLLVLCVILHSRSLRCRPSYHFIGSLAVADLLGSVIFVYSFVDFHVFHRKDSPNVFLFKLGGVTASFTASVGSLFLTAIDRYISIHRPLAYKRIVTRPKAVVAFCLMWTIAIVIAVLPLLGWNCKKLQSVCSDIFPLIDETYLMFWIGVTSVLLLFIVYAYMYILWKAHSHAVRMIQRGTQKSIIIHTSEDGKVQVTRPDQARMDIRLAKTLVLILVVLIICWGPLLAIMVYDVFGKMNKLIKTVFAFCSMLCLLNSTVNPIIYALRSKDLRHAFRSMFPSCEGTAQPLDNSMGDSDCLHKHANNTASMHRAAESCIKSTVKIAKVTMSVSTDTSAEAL
Method: as §2, §3

mice = assay: Mouse 'tetrad' of tests after i.v. administration (Example 2); details: for ED50: Mus musculus, iv
human VR1 receptor = human VR1 receptor (Homo sapiens, UniProt Q8NER1); assay: Ca2+ influx (Fluo-3) in HEK-hVR1 cells (Example 2); assay type: cell-based; parameters: expressed in transfected cells; host or cells: HEK 293 cells (HEK-hVR1); details: for VR1 efficacy: maximal concentration (usually 10 μM), percent of effect of 4 μM ionomycin
Chain of human VR1 receptor (Q8NER1 whole entry): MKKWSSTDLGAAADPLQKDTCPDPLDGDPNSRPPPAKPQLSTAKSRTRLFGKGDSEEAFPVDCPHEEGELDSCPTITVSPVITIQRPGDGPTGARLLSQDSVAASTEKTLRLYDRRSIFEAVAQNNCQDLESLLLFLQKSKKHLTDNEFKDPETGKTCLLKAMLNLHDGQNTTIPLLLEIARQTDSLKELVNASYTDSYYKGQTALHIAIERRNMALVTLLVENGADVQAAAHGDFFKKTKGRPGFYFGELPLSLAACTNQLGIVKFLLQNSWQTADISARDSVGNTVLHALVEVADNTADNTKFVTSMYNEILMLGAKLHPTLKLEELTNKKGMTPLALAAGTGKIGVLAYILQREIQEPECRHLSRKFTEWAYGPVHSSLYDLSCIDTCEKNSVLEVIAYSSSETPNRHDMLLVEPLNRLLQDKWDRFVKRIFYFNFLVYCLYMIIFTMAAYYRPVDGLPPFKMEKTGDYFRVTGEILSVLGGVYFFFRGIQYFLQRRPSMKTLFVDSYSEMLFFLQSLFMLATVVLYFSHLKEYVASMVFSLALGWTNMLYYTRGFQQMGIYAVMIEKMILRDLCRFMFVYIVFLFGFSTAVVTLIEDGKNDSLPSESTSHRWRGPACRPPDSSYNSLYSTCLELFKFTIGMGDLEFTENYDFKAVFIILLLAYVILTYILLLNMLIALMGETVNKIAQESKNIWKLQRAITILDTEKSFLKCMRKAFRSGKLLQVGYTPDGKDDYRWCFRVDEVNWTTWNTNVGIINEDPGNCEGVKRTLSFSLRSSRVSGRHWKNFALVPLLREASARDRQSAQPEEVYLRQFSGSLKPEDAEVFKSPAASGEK
Method: N18TG2 and RBL-2H3 cells were grown as described in Melck et al, Bioch. Biophys. Res. Commun. 262:275-284 (1999). Ionomycin was purchased from Sigma. DMH-arvanil, and six substituted dimethylpentyl (DMP) derivatives of arvanil and met-AEA were synthesized as described in Example 1.
HEK-hVR1 cells were prepared and loaded as described in De Petrocellis, et al., FEBS Lett. 483:52-56 (2000). Experiments were carried out by measuring fluorescence at 25° C. […] Capsazepine (1-5 μM) was added 30 minu. Before the test compounds.
as §3

[3] = read-out: Average ED50 for the four effects
[4] = read-out: R.I. (relative immobility) ED50
[5] = read-out: R.T. (rectal temperature) ED50
[6] = read-out: S.A. (spontaneous activity) ED50
[7] = read-out: T.F. (tail-flick) ED50
[8] = CB1 (Ki, nM), determined in the presence of PMSF, [3H]CP 55,940, PMSF 100 μM
[9] = CB1 (Ki, nM), [3H]CP 55,940, without PMSF
[10] = VR1 (EC50, nM), Ca2+ in HEK cells with human VR1
[11] = VR1 EC50, HEK cells with human VR1

Compound | IC50 [1] [nM] | ED50 (mice; [3]) [mg/kg] | ED50 (mice; [4]) [mg/kg] | ED50 (mice; [5]) [mg/kg] | ED50 (mice; [6]) [mg/kg] | ED50 (mice; [7]) [mg/kg] | VR1 efficacy (human VR1 receptor) [%] | Ki (CB2 receptors) [nM] | IC50 [2] [nM] | Ki (CB1 receptors; [8]) [nM] | Ki (CB1 receptors; [9]) [nM] | EC50 (human VR1 receptor; [10]) [nM] | EC50 (human VR1 receptor; [11]) [nM] | other results
CCCCC/C=C\C/C=C\C/C=C\C/C=C\CCCC(=O)Nc1ccc(O)cc1 [AM404, reference compound] | 8100 |  |  |  |  |  |  |  |  |  |  |  |  | IC50 (AMT): 8100 ± 2600 nM
C[C@H](CO)NC(=O)CCC/C=C\C/C=C\C/C=C\C/C=C\C(C)(C)CCCCO [Compound O-1811, (R)-(16,16-Dimethyl-20-hydroxyeicosa-cis-5,8,11,14-tetraenoyl)-1′-hydroxy-2′-propylamine] | 42500 ± 3300 | 0.773 | 0.663 | 0.188 | 0.996 | 1.24 | 62.5 ± 0.8 |  |  |  |  |  |  | Ki (CB2 receptors; rat spleen membranes, read-out: CB2 (Ki)): 800 ± 150 nM; IC50 ([2]; [14C]AEA hydrolysis, N18TG2 cell membranes, read-out: FAAH (IC50)): > 50000 nM; Ki (CB1 receptors; [3H]CP 55,940, PMSF 100 μM, read-out: CB1 (Ki, nM), determined in the presence of PMSF): 116 ± 11.1 nM; Ki (CB1 receptors; [3H]CP 55,940, without PMSF, read-out: CB1 (Ki)): 115 ± 25.2 nM; fold more potent in reducing body temperature than in increasing tail-flick latency (mice; mice, i.v.): approximately 10 fold; EC50 (human VR1 receptor; Ca2+ in HEK cells with human VR1, read-out: VR1 (EC50)): 724 ± 99 nM
C[C@H](CO)NC(=O)CCC/C=C\C/C=C\C/C=C\C/C=C\C(C)(C)CCCCC#N [Compound O-1812, (R)-(20-cyano-16,16-Dimethyleicosa-cis-5,8,11,14-tetraenoyl)-1′-hydroxy-2′-propylamine] | 37000 ± 4500 | 0.025 | 0.017 | 0.05 | 0.017 | 0.014 | 50.0 | 3870 ± 235 | > 50000 | 4.6 ± 0.4 | 3.4 ± 0.5 | 1950 ± 184 | 1900 | fold more potent on CB1 than on CB2 (CB1 receptors): 1000 fold; fold more potent on CB1 than on VR1 (CB1 receptors): 580 fold; VR1 efficacy (human VR1 receptor; listed as 0-1812): 50.0 ± 1.6%
CCCCCCC(C)(C)/C=C\C/C=C\C/C=C\C/C=C\CCCC(=O)NCc1ccc(O)c(OC)c1 [Compound O-1839, 16,16-Dimethyl-docosa-5,8,11,14-all-cis-tetraenoic acid (4-hydroxy-3-methoxy-benzyl) amide] | 19300 ± 2300 | 0.078 |  | 0.08 | 0.08 | 0.074 | 71.9 ± 4.5 | > 10000 | > 50000 | 201 ± 4.1 | 262 | 0.7 ± 0.08 |  | 
COc1cc(CNC(=O)CCC/C=C\C/C=C\C/C=C\C/C=C\C(C)(C)CCCCO)ccc1O [Compound O-1856, 16,16-Dimethyl-20-hydroxy-eicosa-5,8,11,14-all-cis-tetraenoic acid (4-hydroxy-3-methoxy-benzyl) amide] | 42000 | 0.873 | 0.76 | 1.45 | 0.47 | 0.81 | 83.9 ± 5.1 | > 10000 | 14500 ± 3400 | 1070 ± 134 | 790 | 5 ± 0.7 |  | IC50 ([1]; listed as 0-1856): 40000 ± 3800 nM
C[C@H](CO)NC(=O)CCC/C=C\C/C=C\C/C=C\C/C=C\C(C)(C)CCCCBr [Compound O-1860, (R)-(20-Bromo-16,16-Dimethyleicosa-cis-5,8,11,14-tetraenoyl)-1′-hydroxy-2′-propylamine] | 40000 ± 4500 | 0.388 | 0.43 | 0.44 | 0.39 | 0.29 | 50.0 | > 10000 | > 50000 | 1 ± 0.1 | 2.2 | 371 ± 34 | 370 | VR1 efficacy (human VR1 receptor; listed as 0-1860): 62.1 ± 5.7%
